Among the data in patent US10844049B2, “GLP-1R agonists and uses thereof” (QILU REGOR THERAPEUTICS INC., priority 2018, dated 2020) are EC50 values, retold here.

For the test, the target named is GLP1R (Homo sapiens, UniProt P43220). Kind of test: GLP1R cAMP HTRF assay, HEK293/GLP-1R/CRE/Luc (HEK293T cells). The test is classed as cell-based. The conditions noted are these: read-out: EC50. In a few lines:
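cAMP accumulation via HTRF after 30 min, 37 °C exposure of 1000 receptor-expressing cells/well to compound (0.5% DMSO final) in IBMX (500 μM)/0.1% BSA DPBS.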
A general note: Time-resolved FRET reads energy transfer from a long-lived donor to a nearby acceptor.

GLP1R, sequence (P43220 24-463): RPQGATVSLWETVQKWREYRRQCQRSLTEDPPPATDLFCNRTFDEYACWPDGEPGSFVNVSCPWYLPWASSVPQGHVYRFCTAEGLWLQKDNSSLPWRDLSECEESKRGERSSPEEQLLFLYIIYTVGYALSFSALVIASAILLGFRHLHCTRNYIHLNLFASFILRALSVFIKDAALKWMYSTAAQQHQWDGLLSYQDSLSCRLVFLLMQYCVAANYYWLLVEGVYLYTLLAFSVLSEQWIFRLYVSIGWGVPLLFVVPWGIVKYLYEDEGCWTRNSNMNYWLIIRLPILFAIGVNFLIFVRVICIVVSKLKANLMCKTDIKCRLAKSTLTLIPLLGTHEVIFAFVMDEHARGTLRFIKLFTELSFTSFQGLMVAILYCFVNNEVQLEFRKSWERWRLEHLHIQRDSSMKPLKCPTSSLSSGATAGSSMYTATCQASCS

For orientation: EC50 means the concentration at which the effect is half-maximal. Regarding `O=C(O)c1ccc2nc(CN3CC=C(n4cccc(OCc5ccc(Cl)cc5F)c4=O)CC3)n(C[C@@H]3CCO3)c2c1` [Compound 51, (S)-2-((4-(3-(4-chloro-2-fluorobenzyloxy)-2-oxopyridin-1(2H)-yl)-5,6-dihydropyridin-1(2H)-yl)methyl)-1-(oxetan-2-ylmethyl)-1 h-benzo[d]imidazole-6-carboxylic acid], the EC50 was more than 1000 nM.

Take `O=C(O)c1ccc2nc(CN3CC=C(c4cccc(OCc5ccc(Cl)cn5)n4)CC3)n(C[C@@H]3CCO3)c2c1` [Compound 116, (S)-2-((6-((5-chloropyridin-2-yl)methoxy)-3′,6′-dihydro-[2H′-bipyridin]-1′(2′H)-yl)methyl)-1-(oxetan-2-ylmethyl)-1H-benzo[d]imidazole-6-carboxylic add]: the 50% effective concentration (EC50) is not above 15 nM.

With `N#Cc1ccc(COc2ccc(F)c(C3=CCN(Cc4nc5ccc(C(=O)O)cc5n4C[C@@H]4CCO4)CC3)n2)c(F)c1` [Compound 223, (S)-2-((6-((4-cyano-2-fluorobenzyl)oxy)-3-fluoro-3′,6′-dihydro-[2,4′-bipyridin]-1(2′H)-yl)methyl)-1-(oxetan-2-ylmethyl)-1H-benzo[d]imidazole-6-carboxylic acid], the EC50 was not above 15 nM. Take `O=C(O)c1ccc2nc(CN3CCC(N4Cc5ccccc5N(CCc5ccc(Cl)cc5F)C4=O)CC3)n(C[C@@H]3CCO3)c2c1` [Compound 53, (S)-2-((4-(1-(4-chloro-2-fluorophenethyl)-2-oxo-1,4-dihydroquinazolin-3(2H)-yl)piperidin-1-yl)methyl)-1-(oxetan-2-ylmethyl)-1H-benzo[d]imidazole-6-carboxylic acid]: the EC50 was more than 1000 nM. As to `O=C(O)c1ccc2nc(CN3CC=C(c4cccc(OCc5ccc(OC(F)(F)F)nc5)n4)CC3)n(C[C@@H]3CCO3)c2c1` [Compound 121, (S)-1-(oxetan-2-ylmethyl)-2-((6-((6-(trifluoromethoxy)pyridin-3-yl)methoxy)-3′,6′-dihydro-[2,4′-bipyridin]-1′(2′H)-yl)methyl)-1H-benzo[d]imidazole-6-carboxylic acid], the EC50 was not above 150 nM.

On to `O=C(O)c1ccc2nc(CN3CC=C(c4cccc(OCc5ccc(OC(F)(F)F)cc5)n4)CC3)n(C[C@@H]3CCO3)c2c1` [Compound 120, (S)-1-(oxetan-2-ylmethyl)-2-((6-((4-(trifluoromethoxy)benzyl)oxy)-3′,6′-dihydro-[2,4′-bipyridin]-1′(2′H)-yl)methyl)-1H-benzo[d]imidazole-6-carboxylic acid], for which the EC50 was not above 15 nM.

Regarding `O=C(O)c1ccc2nc(CN3CC=C(c4cccc(OCc5cccc(Cl)c5)n4)CC3)n(C[C@@H]3CCO3)c2c1` [Compound 137, (S)-2-((6-((3-chlorobenzyl)oxy)-3′,6′-dihydro-[2,4′-bipyridin]-1′(2′H)-yl)methyl)-1-(oxetan-2-ylmethyl)-1H-benzo[d]imidazole-6-carboxylic add], the EC50 was not above 1000 nM.

With `O=C(O)c1ccc2nc(CN3CC=C(c4cccc(OCc5ccccc5F)n4)CC3)n(C[C@@H]3CCO3)c2c1` [Compound 155, (S)-2-((6-((2-fluorobenzyl)oxy)-3′,6′-dihydro-[2H′-bipyridin]-1′(2′H)-yl)methyl)-1-(oxetan-2-ylmethyl)-1H-benzo[d]imidazole-6-carboxylic acid], the EC50 is not above 15 nM. Consider `C#Cc1ccc(COc2cccc(C3=CCN(Cc4nc5ccc(C(=O)O)cc5n4C[C@@H]4CCO4)CC3)n2)c(F)c1` [Compound 68, (S)-2-((6-((4-ethynyl-2-fluorobenzyl)oxy)-3‘f’-dihydro-[2,4′-bipyridin]-1′(2′H)-yl)methyl)-1-(oxetan-2-ylmethyl)-1H-benzo[d]imidazole-6-carboxylic acid], for which the EC50 was not above 15 nM. With `O=C(O)c1ccc2nc(CN3CC=C(c4nc(OCc5ccc(C#CC6CC6)cc5F)ncc4F)CC3)n(C[C@@H]3CCO3)c2c1` [Compound 211, (S)-2-((4-(2-(4-(cyclopropylethynyl)-2-fluorobenzyloxy)-5-fluoropyrimidin-4-yl)-5,6-dihydropyridin-1(2H)-yl)methyl)-1-(oxetan-2-ylmethyl)-1H-benzo[d]imidazole-6-carboxylic acid], the concentration for a half-maximal effect (EC50) is not above 15 nM. On to `O=C(O)c1ccc2nc(CN3CC=C(c4ccc5ccn(Cc6ccc(Cl)cc6F)c5c4)CC3)n(C[C@@H]3CCO3)c2c1` [Compound 27, (S)-2-((4-(1-(4-chloro-2-fluorobenzyl)-1 h-indol-6-yl)-5,6-dihydropyridin-1(2H)-yl)methyl)-1-(oxetan-2-ylmethyl)-1 h-benzo[d]imidazole-6-carboxylic add], for which the EC50 was more than 1000 nM. For `O=C(O)c1ccc2nc(CN3CCN(c4cccc(OCc5ccc(Cl)cc5F)n4)C(=O)C3)n(C[C@@H]3CCO3)c2c1` [Compound 55, (S)-2-((4-(6-((4-chloro-2-fluorobenzyl)oxy)pyridin-2-yl)-3-oxopiperazin-1-yl)methyl)-1-(oxetan-2-ylmethyl)-1H-benzo[d]imidazole-6-carboxylic acid], the 50% effective concentration (EC50) is not above 15 nM.

As for `O=C(O)c1ccc2nc(CN3CC=C(c4cccc(OCc5cccc(C(F)(F)F)c5)n4)CC3)n(C[C@@H]3CCO3)c2c1` [Compound 134, (S)-1-(oxetan-2-ylmethyl)-2-((6-((3-(trifluoromethyl)benzyl)oxy)-3′,6′-dihydro-[2,4′-bipyridin]-1′(2H)-yl)methyl)-1H-benzo[d]imidazole-6-carboxylic acid], the half-maximal effective concentration (EC50) is not above 15 nM. In the case of `O=C(O)c1ccc2nc(CN3CC=C(c4cc(OCc5ccc(Cl)cc5F)ncc4F)CC3)n(C[C@@H]3CCO3)c2c1` [Compound 128, (S)-2-((2′-((4-chloro-2-fluorobenzyl)oxy)-5′-fluoro-3,6-dihydro-[4,4′-bipyridin]-1(2H)-yl)methyl)-1-(oxetan-2-ylmethyl)-1H-benzo[d]imidazole-6-carboxylic acid], the concentration for a half-maximal effect (EC50) was not above 150 nM.

As for `O=C(O)c1ccc2nc(CN3CCN(c4nc(OCc5ccc(Cl)cc5F)ncc4F)CC3)n(C[C@@H]3CCO3)c2c1` [Compound 179, (S)-2-((4-(2-(4-chloro-2-fluorobenzyloxy)-5-fluoropyrimidin-4-yl)piperazin-1-yl)methyl)-1-(oxetan-2-ylmethyl)-1H-benzo[d]imidazole-6-arboxylic acid], the EC50 is not above 15 nM. As to `O=C(O)c1ccc2nc(CN3CC=C(c4cccc(OCc5ccc6c(c5)OCCO6)n4)CC3)n(C[C@@H]3CCO3)c2c1` [Compound 151, (S)-2-((6-((2,3-dihydrobenzo[b][1,4]dioxin-6-yl)methoxy)-3′,6′-dihydro-[2,4′-bipyridin]-1′(2′H)-yl)methyl)-1-(oxetan-2-ylmethyl)-1H-benzo[d]imidazole-6-carboxylic add], the EC50 is not above 15 nM. Consider `O=C(O)c1ccc2nc(CN3CC=C(c4cccc(OCc5cc(Cl)ccc5F)n4)CC3)n(C[C@@H]3CCO3)c2c1` [Compound 140, (S)-2-((6-((5-chloro-2-fluorobenzyl)oxy)-3′,6′-dihydro-[2,4′-bipyridin]-1′(2′H)-yl)methyl)-1-(oxetan-2-ylmethyl)-1H-benzo[d]imidazole-6-carboxylic add], for which the EC50 was not above 150 nM. As to `O=C(O)c1ccc2nc(CN3CCN(c4ccc(=O)n(CCc5ccc(Cl)cc5F)n4)CC3)n(C[C@@H]3CCO3)c2c1` [Compound 6, (S)-2-((4-(1-(4-chloro-2-fluorophenethyl)-6-oxo-1,6-dihydropyridazin-3-yl)piperazin-1-yl)methyl)-1-(oxetan-2-ylmethyl)-1 h-benzo[d]imidazole-6-carboxylic add], the concentration for a half-maximal effect (EC50) is more than 1000 nM. On to `N#Cc1ccc(COc2ncc(F)c(C3=CCN(Cc4nc5ccc(C(=O)O)cc5n4C[C@@H]4CCO4)CC3)n2)c(F)c1` [Compound 210, (S)-2-((4-(2-(4-cyano-2-fluorobenzyloxy)-5-fluoropyrimidin-4-yl)-5,6-dihydropyridin-1(2H)-yl)methyl)-1-(oxetan-2-ylmethyl)-1H-benzo[d]imidazole-6-carboxylic add], for which the EC50 is not above 15 nM. For the compound `O=C(O)c1ccc2nc(CN3CC=C(c4cccc(OCc5cc(Cl)cc(C(F)(F)F)c5)n4)CC3)n(C[C@@H]3CCO3)c2c1` [Compound 143, (S)-2-((6-((3-chloro-5-(trifluoromethyl)benzyl)oxy)-3′,6′-dihydro-[2H′-bipyridin]-1′(2′H)-yl)methyl)-1-(oxetan-2-ylmethyl)-1H-benzo[d]imidazole-6-carboxylic acid], the EC50 is not above 15 nM. `Cc1ccc(COc2cccc(C3=CCN(Cc4nc5ccc(C(=O)O)cc5n4C[C@@H]4CCO4)CC3)n2)cc1` [Compound 146, (S)-2-((6-((4-methylbenzyl)oxy)-3′,6′-dihydro-[2,4′-bipyridin]-1′(2′H)-yl)methyl)-1-(oxetan-2-ylmethyl)-1H-benzo[d]imidazole-6-carboxylic acid]: the half-maximal effective concentration (EC50) was not above 15 nM.

As to `O=C(O)c1ccc2nc(CN3CC=C(c4ccnc(OCc5ccc(C#CC6CC6)cc5F)n4)CC3)n(C[C@@H]3CCO3)c2c1` [Compound 201, (S)-2-((4-(2-((4-(cyclopropylethynyl)-2-fluorobenzyl)oxy)pyrimidin-4-yl)-3,6-dihydropyridin-1(2H)-yl)methyl)-1-(oxetan-2-ylmethyl)-1H-benzo[d]imidazole-6-carboxylic acid], the EC50 is not above 15 nM. As for `O=C(O)c1ccc2nc(CN3CC=C(c4cccc(OCc5cccc(F)c5)n4)CC3)n(C[C@@H]3CCO3)c2c1` [Compound 156, (S)-2-((6-((3-fluorobenzyl)oxy)-3′,6′-dihydro-[2,4′-bipyridin]-1′(2′H)-yl)methyl)-1-(oxetan-2-ylmethyl)-1H-benzo[d]imidazole-6-carboxylic add], the figure is not above 150 nM; as for `O=C(O)c1ccc2nc(CN3CCCN(c4cccc(OCc5ccc(Cl)cc5F)n4)CC3)n(C[C@@H]3CCO3)c2c1` [Compound 15, (S)-2-((4-(6-(4-chloro-2-fluorobenzyloxy)pyridin-2-yl)-1,4-diazepan-1-yl)methyl)-1-(oxetan-2-ylmethyl)-1 h-benzo[d]imidazole-6-carboxylic acid], not above 150 nM.
